Earlier results as cited in patent publication US20130072576A1, “Cationic Nanogels For Biotechnological Applications” (Universidad Del Pais Vasco, priority 2010, published 2013).

solubility in water: 8.5 % by weight
SMILES: C=CN1CCCCCC1=O [VCL, N-vinylcaprolactam]
